Measured values reported in ChEMBL document CHEMBL3751845, “Synthesis, molecular docking and biological evaluation of N,N-disubstituted 2-aminothiazolines as a new class of butyrylcholinesterase and carboxylesterase inhibitors” (Bioorg Med Chem, 2016).

How the values were obtained:
Cholinesterase [1] = biological target: T1, Cholinesterase (Equus caballus, UniProt P81908); test: Inhibition of equine serum BChE using butyrylthiocholine iodide as substrate preincubated for 10 mins followed by substrate addition by Ellman's method
T1 sequence (P81908 whole entry): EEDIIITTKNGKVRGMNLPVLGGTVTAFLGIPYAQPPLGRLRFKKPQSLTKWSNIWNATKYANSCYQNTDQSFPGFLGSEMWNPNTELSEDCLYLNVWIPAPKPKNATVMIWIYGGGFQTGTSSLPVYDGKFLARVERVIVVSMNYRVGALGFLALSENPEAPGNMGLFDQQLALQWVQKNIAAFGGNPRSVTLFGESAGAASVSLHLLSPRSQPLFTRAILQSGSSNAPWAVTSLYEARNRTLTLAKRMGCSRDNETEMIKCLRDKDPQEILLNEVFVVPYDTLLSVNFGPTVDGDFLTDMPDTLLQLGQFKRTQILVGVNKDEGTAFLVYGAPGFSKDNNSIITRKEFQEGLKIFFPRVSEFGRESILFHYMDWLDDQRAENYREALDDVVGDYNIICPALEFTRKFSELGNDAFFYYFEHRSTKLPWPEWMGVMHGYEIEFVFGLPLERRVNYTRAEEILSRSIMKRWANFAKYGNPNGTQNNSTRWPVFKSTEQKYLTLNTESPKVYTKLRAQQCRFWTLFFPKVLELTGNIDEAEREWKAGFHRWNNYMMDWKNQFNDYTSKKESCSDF

Liver carboxylesterase [2] = biological target: T2, Liver carboxylesterase (Sus scrofa, UniProt Q29550); test: Inhibition of porcine liver carboxylesterase using 4-nitrophenol acetate as substrate by spectrophotometric analysis
T2 sequence (Q29550 whole entry): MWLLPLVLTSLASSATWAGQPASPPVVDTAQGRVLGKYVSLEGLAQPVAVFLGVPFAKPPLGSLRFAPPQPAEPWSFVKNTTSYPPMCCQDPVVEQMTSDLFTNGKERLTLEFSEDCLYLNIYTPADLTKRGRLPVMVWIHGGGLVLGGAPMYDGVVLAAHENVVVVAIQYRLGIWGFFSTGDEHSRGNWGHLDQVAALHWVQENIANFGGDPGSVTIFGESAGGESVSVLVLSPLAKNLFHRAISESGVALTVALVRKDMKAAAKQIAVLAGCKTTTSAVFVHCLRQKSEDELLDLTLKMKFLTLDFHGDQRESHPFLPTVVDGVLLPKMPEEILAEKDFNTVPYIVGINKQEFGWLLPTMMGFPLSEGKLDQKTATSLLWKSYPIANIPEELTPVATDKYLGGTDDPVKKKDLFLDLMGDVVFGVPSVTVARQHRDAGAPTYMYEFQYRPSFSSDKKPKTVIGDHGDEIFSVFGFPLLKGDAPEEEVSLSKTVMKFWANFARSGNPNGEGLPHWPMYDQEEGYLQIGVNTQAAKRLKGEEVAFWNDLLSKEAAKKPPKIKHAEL

Acetylcholinesterase [3] = biological target: T3, Acetylcholinesterase (Homo sapiens, UniProt P22303)
T3 sequence (P22303 whole entry): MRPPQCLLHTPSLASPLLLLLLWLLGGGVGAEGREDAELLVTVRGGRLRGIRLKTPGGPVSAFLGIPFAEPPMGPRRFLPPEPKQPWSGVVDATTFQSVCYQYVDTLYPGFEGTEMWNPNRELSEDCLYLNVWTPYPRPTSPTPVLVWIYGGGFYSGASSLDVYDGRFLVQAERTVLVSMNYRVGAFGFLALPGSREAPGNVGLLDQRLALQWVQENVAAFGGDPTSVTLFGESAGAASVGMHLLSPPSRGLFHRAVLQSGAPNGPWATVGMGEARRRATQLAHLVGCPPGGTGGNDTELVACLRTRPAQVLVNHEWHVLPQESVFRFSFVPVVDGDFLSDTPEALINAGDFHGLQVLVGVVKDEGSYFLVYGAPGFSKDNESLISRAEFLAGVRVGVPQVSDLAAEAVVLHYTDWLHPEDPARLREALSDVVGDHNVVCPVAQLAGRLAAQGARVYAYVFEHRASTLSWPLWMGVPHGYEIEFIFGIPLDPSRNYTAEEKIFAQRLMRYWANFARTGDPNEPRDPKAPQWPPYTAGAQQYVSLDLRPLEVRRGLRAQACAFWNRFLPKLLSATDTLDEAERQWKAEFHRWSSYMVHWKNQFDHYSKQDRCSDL
Description: (§1) Inhibition of human erythrocyte AChE using acetylthiocholine iodide as substrate preincubated for 10 mins followed by substrate addition by Ellman's method

Cholinesterase [4] = biological target: T1, Cholinesterase; test: Competitive inhibition of equine serum BChE using butyrylthiocholine iodide as substrate assessed as steady state inhibition constant preincubated for 10 mins followed by substrate addition by Lineweaver-Burk double reciprocal plot analysis
Cholinesterase [5] = biological target: T1, Cholinesterase; test: Noncompetitive inhibition of equine serum BChE using butyrylthiocholine iodide as substrate assessed as steady state inhibition constant preincubated for 10 mins followed by substrate addition by Lineweaver-Burk double reciprocal plot analysis
Liver carboxylesterase [6] = biological target: T2, Liver carboxylesterase; test: Noncompetitive inhibition of porcine liver carboxylesterase using 4-nitrophenol acetate as substrate assessed as steady state inhibition constant preincubated for 10 mins followed by substrate addition by Lineweaver-Burk double reciprocal plot analysis
[7] = Cytotoxicity against human fetal MSC assessed as reduction in cell viability at <30 uM after 72 hrs by MTT assay
Acetylcholinesterase [8] = biological target: T3, Acetylcholinesterase; remark: listed apart in the source
Description: as §1

SMILES	IC50 (Cholinesterase [1]) [µM]	IC50 (Liver carboxylesterase [2]; read-out: IC50) [µM]	IC50 (Acetylcholinesterase [3])	Ki (Cholinesterase [4]) [µM]	Ki (Cholinesterase [5]) [µM]	Ki (Liver carboxylesterase [6]) [µM]	Activity [7]	IC50 (Liver carboxylesterase [2])	IC50 (Acetylcholinesterase [8]) [µM]
I.ICC1CN=C(Nc2ccc3c(c2)oc2ccccc23)S1 (stereo unspecified)	> 100	> 100	Not Active						
I.ICC1CN=C(N(Cc2ccccc2)Cc2ccccc2)S1 (stereo unspecified)	25	46	Not Active						
Br.CC(c1ccccc1)N(Cc1ccccc1)C1=NCC(CBr)S1 (stereo unspecified)	14	> 100	Not Active						
Br.BrCC1CN=C(N(Cc2ccccc2)Cc2ccccc2)S1 (stereo unspecified)	26	32	Not Active						
Br.Clc1ccccc1CN(Cc1cccnc1)C1=NCC(CBr)S1 (stereo unspecified)	25	> 100	Not Active						
CC(C)c1ccc(CN(Cc2ccccc2)C2=NCC(CI)S2)cc1.I (stereo unspecified)	4.14	2.13	Not Active	1.34	7.56	2.09	Non-toxic		
CC(C)(C)c1cc(CN(Cc2ccccc2)C2=NCC(CI)S2)cc(C(C)(C)C)c1O.I (stereo unspecified)	> 100		Not Active					Not Active	
Br.CC(C)c1ccc(CN(Cc2ccccc2)C2=NCC(CBr)S2)cc1 (stereo unspecified)	11	2.55	Not Active			3.54	Non-toxic		
COc1ccc(CN(Cc2ccccc2)C2=NCC(CI)S2)cc1OC (stereo unspecified)	20	> 100							> 100
Clc1ccccc1CN(Cc1ccccc1)C1=NCC(CI)S1.I (stereo unspecified)	44	117	Not Active						
Clc1ccccc1CN(Cc1cccnc1)C1=NCC(CI)S1.I (stereo unspecified)	21	> 100	Not Active						
I.ICC1CN=C(N(Cc2ccccc2)Cc2ccco2)S1 (stereo unspecified)	42	131	Not Active						
COc1ccc(CN(Cc2ccccc2)C2=NCC(CI)S2)cc1.I (stereo unspecified)	25	4.66	Not Active			7.81	Non-toxic		
Br.COc1ccc(CN(Cc2ccccc2)C2=NCC(CBr)S2)cc1 (stereo unspecified)	34	4.9	Not Active			7.37	Non-toxic		
Br.Clc1ccc(CN(Cc2cccnc2)C2=NCC(CBr)S2)cc1 (stereo unspecified)	30	> 100	Not Active	9.51	19.9		Non-toxic		
Fc1ccc(CN(Cc2ccccc2)C2=NCC(CI)S2)cc1.I (stereo unspecified)	17	80	Not Active						
Br.CC(C)(C)c1ccc(CN(Cc2ccccc2)C2=NCC(CBr)S2)cc1 (stereo unspecified)	2.34	0.32	Not Active	0.62		0.44	Non-toxic		
Br.Fc1ccc(CN(Cc2ccccc2)C2=NCC(CBr)S2)cc1 (stereo unspecified)	38	40	Not Active						
CC(C)(C)c1ccc(CN(Cc2ccccc2)C2=NCC(CI)S2)cc1.I (stereo unspecified)	0.77	0.22	Not Active	0.27	1.2	0.4	Non-toxic		
CC(c1ccccc1)N(Cc1ccccc1)C1=NCC(CI)S1.I (stereo unspecified)	> 100	19	Not Active						
Clc1ccc(CN(Cc2cccnc2)C2=NCC(CI)S2)cc1.I (stereo unspecified)	2.47	18		0.67	3.6		Non-toxic		> 100
